{
  "source": "patent US20250051263A1",
  "about": "“NOVEL IONIZABLE LIPIDS AND LIPID NANOPARTICLES AND METHODS OF USING THE SAME” (Sail Biomedicines, Inc., priority 2021, published 2025)",
  "key": {"[1]": {"assay": "LNP size and polydispersity, Zetasizer Ultra", "format": "physicochemical", "conditions": "Example 5 LNP lipid:DOPE:Plant Cholesterol:DMPE-PEG2k 35:16:46.5:2.5, FLUC/EPO 1:1 mRNA, N:P 6:1", "source_text": "(§1) All other compositions (i.e., compositions of MC3 (a commercially available ionizable lipid having a chemical name of (6Z,9Z,28Z,31Z)-heptatriacont-6,9,28,31-tetraene-19-yl 4-(dimethylamino)butanoate, and compositions of novel ionizable lipids 7669, 7671, 7668, 767, 7650) are composed of ionizable lipid:structural lipid:sterol:PEG-lipid (SDA lipid #:DSPC:cholesterol:14:0 PEG2000 PE) at a molar ratio of […], respectively. Lipids are solubilized in ethanol. Compositions are then handled as above, except the formulations are maintained at ionizable lipid to mRNA N:P ratio of 6:1. The lipid mix and mRNA solution are mixed at a 1:3 ratio by volume, respectively, on a NanoAssemblr Ignite (Precision Nanosystems) at a total flow rate of 9 mL/min. Resulting compositions are then loaded into Slide-A-Lyzer G2 dialysis cassettes (10 k MWCO) and dialyzed in 200 times sample volume of 1×PBS for 4 hrs at room temp with gentle stirring. The PBS is refreshed, and the compositions are further dialyzed for at least 14 hrs at 4° C. with gentle stirring. The dialyzed compositions are then collected and concentrated by centrifugation at 2000×g using Amicon Ultra centrifugation filters (100 k MWCO). Concentrated particles are characterized for size, polydispersity, and particle concentration using Zetasizer Ultra (Malvern Panalytical) and for mRNA encapsulation efficiency using Quant-iT RiboGreen RNA Assay Kit (ThermoFisher Scientific).\n(§2) The lipid mix and mRNA solution were mixed at a 1:3 ratio by volume, respectively, on the NanoAssemblr Ignite (Precision Nanosystems) at a total flow rate of 9 mL/min. Resulting formulations were then loaded into Slide-A-Lyzer G2 dialysis cassettes (10 k MWCO) and dialyzed in 200 times sample volume of 1×PBS for 2 hrs at room temperature. The PBS was refreshed, and the formulations were further dialyzed for at least 14 hrs at 4° C. with gentle stirring. The dialyzed formulations were then collected and concentrated by centrifugation at 3000×g using Amicon Ultra centrifugation filters (100 k MWCO). The concentrated formulations were characterized for size, polydispersity, and particle concentration using Zetasizer Ultra (Malvern Panalytical) and for mRNA encapsulation efficiency using Quant-iT RiboGreen RNA Assay Kit (ThermoFisher Scientific).\n(§3) For each LNP composition, the lipid mix and mRNA solution were mixed at a 1:3 ratio by volume, respectively, on a NanoAssemblr Ignite (Precision Nanosystems) at a total flow rate of 9 mL/min. The resulting compositions were then loaded into Slide-A-Lyzer G2 dialysis cassettes (10 k MWCO) and dialyzed in 200 times sample volume of 1×PBS for 2 hours at room temperature with gentle stirring. The PBS was refreshed, and the compositions were further dialyzed for at least 14 hours at 4° C. with gentle stirring. The dialyzed compositions were then collected and concentrated by centrifugation at 3000×g using Amicon Ultra centrifugation filters (100 k MWCO). The concentrated particles were characterized for size, polydispersity, and particle concentration using Zetasizer Ultra (Malvern Panalytical) and for mRNA encapsulation efficiency using Quant-iT RiboGreen RNA Assay Kit (ThermoFisher Scientific)."}, "[2]": {"assay": "mRNA encapsulation efficiency, Quant-iT RiboGreen RNA Assay", "format": "physicochemical", "conditions": "Example 5 LNP lipid:DOPE:Plant Cholesterol:DMPE-PEG2k 35:16:46.5:2.5, FLUC/EPO 1:1 mRNA, N:P 6:1", "source_text": "as §1, §2, §3"}, "Balb/c mice [3]": {"tested_on": "Balb/c mice", "assay": "In-vivo bioluminescent imaging after IV injection of Fluc mRNA LNP", "conditions": "Example 5 LNP (DOPE 35:16:46.5:2.5), IV, 5 μg FLUC + 5 μg EPO", "procedure": "(§4) 8-9 week old female Balb/c mice are utilized for bioluminescence-based ionizable lipid screening efforts. Mice are obtained from Jackson Laboratories (JAX Stock: 000651) and allowed to acclimate for one week prior to manipulations. Animals are placed under a heat lamp for a few minutes before introducing them to a restraining chamber. The tail is wiped with alcohol pads (Fisher Scientific) and 100 μL of a lipid nanoparticle composition descrbed above containing 10 ug total mRNA (5 ug Fluc+5 ug EPO) is injected intravenously using a 29 G insulin syringe (Covidien). Any resulting bleeding is stemmed using a sterile gauze pad (Fisher Scientific) and animals are placed back into their home cage. 4-6 hours post-dose, animals are injected with 200 μL of 15 mg/mL D-Luciferin (GoldBio) and placed in an isoflurane induction chamber set to deliver 2.5% isoflurane delivered at an oxygen flow rate of 1-2 liters per min. After 5 minutes of isoflurane exposure, mice are placed in set nose cones inside the IVIS Lumina LT imager (PerkinElmer). LivingImage software is utilized for imaging. Whole body bio-luminescence is captured at auto-exposure after which animals are removed from the IVIS and placed into a CO2 chamber for euthanasia. Cardiac puncture is performed on each animal after placing it in dorsal recumbency, and blood collection is performed using a 25 G insulin syringe (BD). Blood is collected in Lithium-Heparin coated tubes (Fisher Scientific) and immediately placed on ice. Once all blood samples are collected, tubes are spun at 2000 G for 10 minutes using a tabletop centrifuge and plasma is aliquoted into individual Eppendorf tubes (Fisher Scientific) and stored at −80 C for subsequent EPO quantification. EPO levels in plasma are determined using EPO MSD kit (Meso Scale Diagnostics).\n(§5) 8-9 week old female Balb/c mice were utilized for bioluminescence-based ionizable lipid screening efforts. Mice were obtained from Jackson Laboratories (JAX Stock: 000651) and allowed to acclimate for one week prior to manipulations. Animals were placed under a heat lamp for a few minutes before introducing them to a restraining chamber. The tail was wiped with alcohol pads (Fisher Scientific) and, for each LNP composition descrbed above, 100 μL of a lipid nanoparticle composition descrbed above containing 10 μg total mRNA (5 μg Fluc+5 μg EPO, 5 μg Fluc+5 μg Cre, or 5 μg EGFP) was injected intravenously using a 29 G insulin syringe (Covidien).\n(§6) 4-6 hours post-dose, animals were injected with 200 μL of 15 mg/mL D-Luciferin (GoldBio), and placed in set nose cones inside the IVIS Lumina LT imager (PerkinElmer). LivingImage software was utilized for imaging. Whole body bio-luminescence was captured at auto-exposure after which animals are removed from the IVIS and placed into a CO2 chamber for euthanasia. Cardiac puncture was performed on each animal after placing it in dorsal recumbency, and blood collection was performed using a 25 G insulin syringe (BD). Once all blood samples were collected, tubes are spun at 2000 G for 10 minutes using a tabletop centrifuge and plasma was aliquoted into individual Eppendorf tubes (Fisher Scientific) and stored at −80° C. for subsequent EPO quantification. EPO levels in plasma were determined using EPO MSD kit (Meso Scale Diagnostics)."}, "Balb/c mice [4]": {"tested_on": "Balb/c mice", "assay": "EPO levels in plasma by EPO MSD kit after IV injection of EPO mRNA LNP", "format": "in vivo", "conditions": "Example 5 LNP (DOPE 35:16:46.5:2.5), 5 μg FLUC + 5 μg EPO", "procedure": "as §4, §5, §6"}},
  "data": [
    {"smiles": "CCCCCCCCC(CCCCCCCC)OC(=O)CCCCCCCN(CCCCCCCOC(=O)C(CCCCCCCC)CCCCCCCC)CCNC(=O)CCC(=O)NCCN(CCCCCCCOC(=O)C(CCCCCCCC)CCCCCCCC)CCCCCCCC(=O)OC(CCCCCCCC)CCCCCCCC", "note": "[Compound 2323, 7-[2-[[4-[2-[7-(2-octyldecanoyloxy)heptyl-[8-(1-octylnonoxy)-8-oxo-octyl]amino]ethylamino]-4-oxo-butanoyl]amino]ethyl-[8-(1-octylnonoxy)-8-oxo-octyl]amino]heptyl 2-octyldecanoate]", "values": [
      {"measurement": "PDI", "setting": "[1]", "result": 0.14},
      {"measurement": "Size (nm)", "setting": "[1]", "result": 91.0, "unit": "nm"},
      {"measurement": "% EE", "setting": "[2]", "result": 90.7, "unit": "%"},
      {"measurement": "Bioluminescence (IV) Liver", "setting": "Balb/c mice [3]; 4-6 hours post-dose, liver", "result": "3.2E+07"},
      {"measurement": "Bioluminescence (IV) Lung", "setting": "Balb/c mice [3]; 4-6 hours post-dose, lung", "result": "7.7E+03"},
      {"measurement": "Bioluminescence (IV) Spleen", "setting": "Balb/c mice [3]; 4-6 hours post-dose, spleen", "result": "8.7E+05"},
      {"measurement": "Bioluminescence (IV) Whole Body", "setting": "Balb/c mice [3]; 4-6 hours post-dose, whole body", "result": "2.1E+08"},
      {"measurement": "Spleen: Liver Ratio", "setting": "Balb/c mice [3]; ratio of bioluminescence", "result": 0.027},
      {"measurement": "hEPO", "setting": "Balb/c mice [4]", "result": "3.1E+06"}
    ]}
  ]
}
